# Laboratory results as given in the NIST ThermoML archive (doi:10.1016/j.jct.2017.09.027).
# ± gives the expanded uncertainty stated by the source.
# Details: 298.15 K; 100 kPa; Liquid; Vibrating tube method
row,Compound,mass density
1,"CC(C)CC(C)(C)C [2,2,4-trimethylpentane]",687.32 ± 1.7 kg/m3
2,N#CCCc1ccccc1 [3-phenylpropanenitrile],996.44 ± 2.4 kg/m3
3,N#CCc1ccccc1 [benzeneacetonitrile],1012.89 ± 2.6 kg/m3
4,C1CCCCCCC1 [cyclooctane],831.61 ± 2 kg/m3
5,CCCCCCC [heptane],679.71 ± 1.6 kg/m3
6,CCCCCCCCC [nonane],713.93 ± 1.7 kg/m3
7,CCCCCCCC [octane],698.71 ± 1.7 kg/m3
